± gives the expanded uncertainty stated by the source.
settings: 298.15 K; 101.33 kPa; Liquid; Pycnometric method

Structure (SMILES) | mass density [kg/m3]
CC(C)O [propan-2-ol] | 781.1 ± 4.8
CCCO [propan-1-ol] | 799.7 ± 4.8
CC#N [acetonitrile] | 777.1 ± 4.8
CCO [ethanol] | 785.3 ± 4.8

Second part, the compound after the results:

mass density [kg/m3] | Structure (SMILES)
806.1 ± 4.8 | CCCCO [butan-1-ol]
786.6 ± 4.8 | CO [methanol]

Source: the NIST ThermoML archive (doi:10.1016/j.jct.2015.09.010)
